We go through three molecules from patent US6664284B2, “Stabilized carvedilol injection solution” (Roche Diagnostics GmbH, priority 1998, dated 2003).

In brackets after ≈: the same amount, converted by molar mass.

The test system of one series is lipid peroxidation. The note with it: reported by Yue et al.; cited from earlier work.
A short description of series [1]: physchem. The note with it: pH 6.1, water.
Series [2] can be described thus: Solubility of loop diuretics in the acidic to maximum neutral aqueous formulations. The following applies: acidic to neutral aqueous carvedilol injection solutions, aqueous with cosolvent or surfactant or cyclodextrin.
A short description of series [3]: physchem. The following applies: aqueous with cosolvent or surfactant or cyclodextrin.

Take `COc1ccccc1OCCNCC(O)COc1cccc2[nH]c3ccccc3c12` (stereo not drawn) [carvedilol, 1-(9H-carbazol-4-yloxy)-3-[[2-(2-methoxyphenoxy)ethyl]amino]-2-propanol]: the “antioxidative activity, lipid peroxidation” value in the series on lipid peroxidation is given as “inhibit lipid peroxidation”. Moreover, the solubility in the series “physchem [1]” is approximately 2 µg/mL (≈ 4.92 µM). Moreover, where the note is “pH 6.1”, the “solubility of carvedilol in water” value is “about 0.2 mg/100 ml”. Further, the “pH value resulting from saturated solution in water” value (water) turned out to be 6.1.
As for `NS(=O)(=O)c1cc(-c2nnn[nH]2)c(NCc2cccs2)cc1Cl` [azosemide], in series [2], the solubility lay within 1000 to 3000 µg/mL (≈ 2700 to 8090 µM).
In the series “physchem [3]”, `Cc1cccc(Nc2ccncc2S(=O)(=O)NC(=O)NC(C)C)c1` [Torasemide] registered a solubility of 1000 to 2000 µg/mL (≈ 2870 to 5740 µM).
